88 compounds from PubChem BioAssay AID1159563 (GlaxoSmithKline (GSK), 2015) can be followed below.

Active and inactive are the calls of the source. No rule for the calls is given here.

The experiment deals with HepG2 cytotoxicity. Nature of the experiment: human hepatoma cell viability loss – cytotoxicity control (AID 1159563).
`Cc1nc2c(-c3cccs3)c(C)nn2c(NCCO)c1C`: the IC50 (commonly the concentration that gives 50% inhibition) was > 100 µM (inactive).
Take `Clc1ccc(Sc2cnccc2N2CCOCC2)cc1`: the IC50 was > 100 µM (inactive).
For the compound `COc1ccc2ncc(F)c(CCN3CC[C@@H](NC(=O)c4cc5c(s4)CCC5)[C@@H](O)C3)c2n1`, the IC50 is 50 µM.
Consider `Cn1nccc1-c1cc(OC(CN)c2ccccc2)cnc1-c1ccco1` (stereo not drawn), for which the IC50 was 50 µM.
In the case of `Cc1c([N+](=O)[O-])c(C(=O)Nc2sc3c(c2C#N)CCC(C)C3)nn1C` (stereo not drawn), the IC50 is > 100 µM (inactive).
Regarding `c1ccc(CCNCc2cncc3nc(-c4cnccn4)n(C4CCCCC4)c23)cc1`, the IC50 is > 100 µM (inactive).
Turning to `Cc1cccc(Nc2nc(-c3ccccn3)cs2)n1`, the IC50 is 40 µM.
For `CC(C)CC(=O)NC(c1cccs1)c1ccc2cccnc2c1O` (stereo not drawn), the IC50 is > 100 µM (inactive).
`CC1=NN(C(=O)CCn2cnc([N+](=O)[O-])n2)C(O)(C(F)(F)F)C1` (stereo not drawn): the IC50 is > 100 µM (inactive).
For `CC(Cn1ccnc1)NC(=O)C=Cc1ccc(Cl)cc1` (stereo not drawn), the IC50 was > 100 µM (inactive).
Under `COc1ccccc1-n1c(SCC(=O)Nc2ccc3c(c2)OCO3)nc2c(c1=O)SCC2` stands > 100 µM (inactive); under `CCCCNc1nccc(-c2c(-c3ccc(F)cc3)nn3c(N4CCOCC4)cccc23)n1`, > 100 µM (inactive); under `COc1ccc2nccc([C@H](O)CN3CC[C@H](NC(=O)c4ccc(Br)cc4)[C@@H](O)C3)c2n1`, > 100 µM (inactive).
Consider `O=C1OCc2ccc(Nc3nccc(-c4cnn5ncccc45)n3)cc21`, for which the IC50 was > 100 µM (inactive).
Take `c1ccc(-c2nc(NCc3ccco3)c3ccccc3n2)nc1`: the IC50 is > 100 µM (inactive).
Under `CS(=O)(=O)c1ccccc1C(=O)N(Cc1ccccc1)c1ccccc1` stands > 100 µM (inactive).
In the case of `COc1ccc(NS(=O)(=O)c2cc(NC(=O)c3ccc([N+](=O)[O-])s3)ccc2OC)cc1`, the IC50 is > 100 µM (inactive).
For `Cc1sc(C)c(C(F)(F)F)c1CNCCCNc1cc(=O)c2ccccc2[nH]1`, the IC50 was 50 µM.
Under `CCc1cccc(-n2nc(OCC(=O)NC3CCCC3)c3cccnc32)c1` stands > 100 µM (inactive).
Under `CS(=O)(=O)c1ccc(CC(=O)Nc2nc(-c3ccc(Cl)s3)cs2)cc1` stands > 100 µM (inactive); under `CCN(CC)S(=O)(=O)c1ccc(Cn2nc(C(=O)Nc3ccncn3)c3ccccc32)cc1`, > 100 µM (inactive).
For `Cc1cc2cncn2c(C2CCCCN2C(=O)c2cccs2)n1` (stereo not drawn), the IC50 is > 100 µM (inactive).
Consider `Cc1[nH]n2c(=O)c3c(nc2c1-c1ccc(Br)cc1)CCCC3`, for which the IC50 was > 100 µM (inactive).
Take `N#Cc1ccc(C(=O)Nc2cccc(-c3cccc(CN4CCC(O)CC4)c3)c2)cc1`: the IC50 was 40 µM.
Take `O=C(Nc1nccs1)c1ccccc1Cn1cc([N+](=O)[O-])cn1`: the IC50 is > 100 µM (inactive).
Turning to `O=C(NNC(=O)c1ccccn1)c1ccc(-c2ccccc2)cc1`, the IC50 is > 100 µM (inactive).
For the compound `CCOc1ccc(CC(=O)N2c3ccccc3CC2C(=O)NC)cc1` (stereo not drawn), the IC50 is > 100 µM (inactive).
`O=C(NC1C(=O)N(c2ccccc2)C1c1cccnc1)c1ccc(Cl)s1` (stereo not drawn): the IC50 was > 100 µM (inactive).
Turning to `COc1ccc(S(=O)(=O)NC(C)C)cc1Nc1ncc(-c2cccc(F)c2)cn1`, the IC50 is > 100 µM (inactive).
As for `CC(c1ccccn1)N(C)Cc1nc2ccccc2n1C(C)C` (stereo not drawn), the IC50 was 25 µM.
As to `COCc1cc(Nc2cccc(Cl)c2)nc(-c2ccccn2)n1`, the IC50 is 40 µM.
For `O=C(Nc1nc(-c2ccccn2)cs1)c1ccccc1-n1cnnn1`, the IC50 is 1.6 µM.
Under `C=CCN(Cc1cccs1)C(=O)CSc1nnc(-c2ccc3c(c2)OCO3)o1` stands > 100 µM (inactive); under `Cc1nc(-c2ccc3c(c2)OCO3)sc1C(=O)NCc1ccc2c(c1)OCO2`, > 100 µM (inactive); under `COc1ccc(Cc2nc(-c3ncc4cccnc4c3O)n[nH]2)cc1OC`, 50 µM.
On to `Cn1c(CC(=O)NNC(=O)c2ccc3ccccc3n2)nc2ccccc21`, for which the IC50 is > 100 µM (inactive).
Under `CC(C)Oc1cccc(N2CCC(C(=O)N3CCCN(C(C)C)CC3)CC2)c1` stands > 100 µM (inactive).
`CS(=O)(=O)NC1CCC(Oc2cc3cnccc3cc2-c2ccsc2)CC1` (stereo not drawn): the IC50 is 63 µM.
In the case of `CN(C)c1ccc(N)cc1CN(CC1CCCO1)S(C)(=O)=O` (stereo not drawn), the IC50 is > 100 µM (inactive).
`O=C(Nc1nc2ccccc2[nH]1)c1c(O)c2cccc3c2n(c1=O)CC3`: the IC50 was 10 µM.
Regarding `CN(Cc1ccccc1)Cc1nnnn1C1CCN(Cc2ccc(-n3ccnc3)cc2)CC1`, the IC50 was > 100 µM (inactive).
With `COc1ccc(S(=O)(=O)Nc2ccccc2OC)cc1NC(=O)CCCc1c[nH]c2ccccc12`, the IC50 is > 100 µM (inactive).
Take `Cc1nn(-c2nc3ccccc3s2)c2c1C(c1ccc(OCC(N)=O)cc1)SCC(=O)N2` (stereo not drawn): the IC50 is > 100 µM (inactive).
In the case of `Cc1ccc2sc(NC(=O)Cn3cnc([N+](=O)[O-])n3)nc2c1`, the IC50 was > 100 µM (inactive).
Under `COc1ccc(NC(=O)c2ccc(NC(=O)CN(c3ccccc3C)S(C)(=O)=O)cc2)cc1` stands 40 µM.
With `O=C(CN(Cc1ccccn1)Cc1ccccn1)NCc1ccc2c(c1)OCO2`, the IC50 is > 160 µM (inactive).
As to `O=C(c1ccc(Cl)cc1)c1ccc(OC(=O)N2CCOCC2)cc1`, the IC50 was > 100 µM (inactive).
Under `Nc1ncnc2c1ncn2[C@@H]1O[C@H](CO)C[C@H]1O` stands > 100 µM (inactive); under `O=C(CC1(O)C(=O)N(Cc2ccccc2)c2ccc(Br)cc21)c1cccnc1` (stereo not drawn), 63 µM; under `COc1ccc(C(=O)Nc2cc(C(F)(F)F)ccc2N2CCOCC2)c(OC)c1`, > 100 µM (inactive).
Consider `CCOc1ccc(OCC(=O)N2c3ccccc3CC2C(=O)NC)cc1` (stereo not drawn), for which the IC50 was > 100 µM (inactive).
Under `Cc1cc(N2CCc3ccccc3C2)nc(Nc2ccc(S(=O)(=O)N3CCOCC3)cc2)n1` stands > 100 µM (inactive).
With `Cc1nc2nc(C)c(Cc3ccc(C(C)C)cc3)c(=O)n2[nH]1`, the IC50 is > 100 µM (inactive).
Consider `CS(=O)(=O)c1ccc(Nc2nccc(-c3cnn4ncccc34)n2)cc1`, for which the IC50 is 16 µM.
Under `CC1CN(Cc2ccc(C#N)cc2)CCN1c1ccc(NC(=O)c2ccccc2F)cc1` (stereo not drawn) stands > 100 µM (inactive).
For `O=C(COc1ccccc1)Nc1ccccc1C(=O)Nc1nccs1`, the IC50 was > 100 µM (inactive).
Under `O=C(CCc1ccc(-c2ccccc2)o1)N1CCN(c2ccc(O)cc2)CC1` stands > 100 µM (inactive).
For the compound `CNC(=O)C1Cc2ccccc2N1C(=O)COc1cccc(OC)c1` (stereo not drawn), the IC50 is > 100 µM (inactive).
For the compound `CNC(=O)Oc1ccc(C(=O)NCc2ccccc2)cc1OC(=O)NC`, the IC50 was > 100 µM (inactive).
`Cc1nn(-c2ccccc2)nc1CNC(=O)CN(Cc1ccccn1)Cc1ccccn1`: the IC50 is > 130 µM (inactive).
Under `Cc1nn(-c2nc3ccccc3[nH]2)c2c1C(c1ccc(O)cc1)CC(=O)N2` (stereo not drawn) stands 25 µM; under `COc1cnc2ccc(=O)n(CCN3CCC(NC/C=C/c4cc(F)ccc4F)CC3)c2c1`, 63 µM; under `Oc1c(-c2n[nH]c(Cc3ccc(Cl)cc3)n2)ncc2cccnc12`, 40 µM.
Under `N#Cc1ccccc1S(=O)(=O)N1CCN(C(=O)CNC(=O)c2ccc3c(c2)OCO3)CC1` stands > 100 µM (inactive); under `Cc1nc2c(-c3n[nH]c(-c4ccccc4N)n3)cccn2c1C`, 16 µM; under `CCCCc1cc(Nc2cc(C3CCC3)[nH]n2)nc(N2CCC2C(N)=O)n1` (stereo not drawn), > 100 µM (inactive).
Turning to `COc1ccc2ncc(=O)n(CCN3CCC(NCc4ccc(-c5cccs5)cc4)CC3)c2n1`, the IC50 is 13 µM.
On to `Oc1c(-c2n[nH]c(Cc3ccc(F)cc3)n2)ncc2cccnc12`, for which the IC50 is 25 µM.
For the compound `COCc1cc(Nc2ccccc2)nc(-c2ccccn2)n1`, the IC50 was 100 µM.
As for `CCN(CC)c1ncc(C(=O)c2ccc([N+](=O)[O-])o2)s1`, the IC50 is 16 µM.
Under `NC(=O)c1ccc(-c2cccc(OCCN3CCN(C4CCCCC4)CC3)c2)cc1` stands 50 µM; under `COc1ccc(NS(=O)(=O)c2cccc(NC(=O)c3cc(F)cc(F)c3)c2)cc1`, 32 µM.
For the compound `NS(=O)(=O)c1ccc(Nc2ncc3cccc(OC4CCNCC4)c3n2)cc1`, the IC50 is > 100 µM (inactive).
For `CC(C)(C)C(=O)Nc1cc(C2CC2)nn1-c1nc2c(c(=O)[nH]1)CCCC2`, the IC50 was > 100 µM (inactive).
Consider `COCc1cnc2c(c1SCc1c(F)cccc1Cl)c(=O)n(C)c(=O)n2C`, for which the IC50 is > 100 µM (inactive).
Under `c1ccc2[nH]c(-c3ccc(N4CCCC4)nc3)nc2c1` stands > 100 µM (inactive); under `O=[N+]([O-])c1ccc(-c2nnn(-c3cccnc3)n2)o1`, > 100 µM (inactive).
For `Cc1nc2c(-c3ncn[nH]3)cc(NC(=O)Cc3ccccc3)cn2c1C`, the IC50 was 16 µM.
With `COc1cc(OC)cc(C(=O)N[C@@H](CC(C)C)C(=O)NC2(C#N)CC2)c1`, the IC50 is > 100 µM (inactive).
Under `O=C(NCc1ccncc1)c1ccccc1N1CCCN(C(=O)Cc2ccc(F)c(F)c2)CC1` stands > 100 µM (inactive); under `CNc1cncc(C2CCCN2C(=O)Cc2coc3cc(C)ccc23)n1` (stereo not drawn), > 100 µM (inactive).
Under `CC(C)Oc1ccc(C(=O)Nc2ccc(N3CCOCC3)c(Cl)c2)cc1` stands 32 µM; under `O=C(NCc1nnc2n1CCCCC2)c1csc(-c2ccccc2)n1`, > 100 µM (inactive).
Under `CC(=O)Nc1ccc(-c2csc(NC(=O)c3ccc([N+](=O)[O-])s3)n2)cc1` stands 50 µM; under `O=C(Nc1ccccc1C(=O)Nc1ccccn1)c1ccco1`, > 100 µM (inactive); under `NCC(Cc1ccccc1)NC(=O)c1cnc(-c2c[nH]c3ncccc23)s1` (stereo not drawn), 79 µM.
Consider `CS(=O)(=O)NC1CCC(Nc2ncc(Br)c(Nc3ccccc3C(N)=O)n2)CC1` (stereo not drawn), for which the IC50 was > 100 µM (inactive).
Under `COc1cc(F)c2ncc(F)c(CCN3CC[C@H](NCc4cc5c(cn4)OCS5)[C@@H](O)C3)c2c1` stands 50 µM.
